Ten compounds from patent US20260097139A1, “GONADOTROPIN-RELEASING HORMONE RECEPTOR (GnRHR) TARGETED THERAPEUTICS AND USES THEREOF” (Radionetics Oncology, Inc., priority 2022, published 2026) can be followed below.

Structures are written as SMILES.

The target of one experiment is T1, human GnRH receptor (Homo sapiens, UniProt P30968).
T1 construct: expressed in transfected cells
T1 sequence (P30968 1-328): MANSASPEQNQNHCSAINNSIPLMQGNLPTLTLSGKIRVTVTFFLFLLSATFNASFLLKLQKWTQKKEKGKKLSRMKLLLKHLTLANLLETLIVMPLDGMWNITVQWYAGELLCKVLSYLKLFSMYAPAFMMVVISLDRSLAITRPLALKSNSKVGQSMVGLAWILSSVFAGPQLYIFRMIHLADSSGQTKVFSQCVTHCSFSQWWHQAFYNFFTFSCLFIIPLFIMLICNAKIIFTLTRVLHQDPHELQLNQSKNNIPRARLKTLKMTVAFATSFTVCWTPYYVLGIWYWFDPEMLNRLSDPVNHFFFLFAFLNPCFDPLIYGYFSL
The experiment is described as follows: IP-One functional assay for GnRHR (reported as hGnRHR Binding Ki). Format: cell-based. The settings on record: incubation time 60 min; FlpIn T-Rex 293 cells expressing human GnRH receptor; read-out: hGnRHR Binding Ki 60 min. The text has this: General overview: GnRHR is a Gq/11-coupled receptor that mediates the action of the GnRH hormone by activating the phosphatidylinositol-calcium second messenger system. Activation of the GnRHR induces the accumulation of inositol monophosphate, a stable metabolite of IP-3, that can be characterized as a measure of agonistic activity (increase in IP-One) or antagonistic activity (blockade of IP-One accumulation) by compounds of the invention. One example of an intracellular IP-One assay used to characterize GnRHR antagonists is described below.
24 hours prior to the assay, 30,000 FlpIn T-Rex 293 Cells (ThermoFisher #R78007) stably expressing the functional human GnRH receptor upon induction with tetracycline were plated in a 96-well tissue culture-treated plate in FlpIn T-Rex 293 Growth Medium [DMEM (Corning #10-013-CM) supplemented with 10% fetal bovine serum (Gemini Bio-Products #900-208), 100 U/mL penicillin; 100 μg/mL streptomycin; 2 mM L-glutamine (Gemini Bio-Products #400-110)] and 50 ng/mL tetracycline hydrocholoride (Sigma, T7660). Cells were cultured at 37° C., 5% CO2 and 95% humidity. On the day of the assay, the growth media was discarded and the cells were treated with 50 μL of a dose response curve of GnRH (Bachem #4033013) in the presence of various concentrations of fixed compound in assay buffer [10 mM HEPES (Biopioneer Cat #C0113) pH 7.4, 1 mM CaCl2) (Fisher Scientific BP510-100), 0.5 mM MgCl2 (Sigma M8266-100G), 4.2 mM KCl (Fisher Scientific P330-500), 146 mM NaCl (Spectrum Chemical #SO155), 5.5 mM Glucose (Sigma G7528), 50 mM LiCl (Fisher Scientific L121-100), 0.1% bovine serum albumin (Fisher Scientific Cat #BP1600)] and incubated for 1 hour at 37° C. (the final concentrations of GnRH ranged from 0-250 nM and the final concentrations of the compound ranged from 0-10,000 nM). 50 μL of lysis buffer (HRTF IP-one kit, Cisbio) was added on top of the treatment to lyse the cells. The lysate was transferred to 384-well plates and IP-one detection and visualization antibodies were added and incubated for 1-24 hours at room temperature. The time-resolved fluorescent signal was read with a Tecan M1000Pro (Tecan) multiplate reader. The intracellular IP-one concentrations were calculated by regression to a standard curve and were plotted vs. the concentration of the GnRH agonists in the presence of various concentrations of antagonist and the Ks of the compounds were calculated using standard curve-fitting methods. All data manipulations were performed using GraphPad Prism v8 (GraphPad, San Diego, CA).
For some analogs, the incubation time was 2 h or 4 h, as noted in Table A.
The Ki is a measure of affinity in units of concentration, obtained from inhibition or displacement. Take `CN(C(=O)c1ccc(Cl)c(-c2cnc(C(F)(F)F)cc2C#N)c1)c1ccccc1OCCC(=O)NCCOCCOCCOCCOCCOCCOCCOCCOCCNC(=O)CN1CCN(CC(=O)O)CCN(CC(=O)O)CCN(CC(=O)O)CC1` [Compound 2, 2,2′,2″-(10-(33-(2-(4-chloro-3-(4-cyano-6-(trifluoromethyl)pyridin-3-yl)-N-methylbenzamido)phenoxy)-2,31-dioxo-6,9,12,15,18,21,24,27-octaoxa-3,30-diazatritriacontyl)-1,4,7,10-tetraazacyclododecane-1,4,7-triyl)triacetic acid]: the inhibitory constant (Ki) was below 10 nM.

As for `CN(C(=O)c1ccc(Cl)c(-c2cnc(C(F)(F)F)cc2C#N)c1)c1ccccc1OCCOCCOCCOCCOCCOCCOCCOCCOCCNC(=O)CN1CCN(CC(=O)O)CCN(CC(=O)O)CCN(CC(=O)O)CC1` [Compound 3M-In, indium(III) 2,2′,2″-(10-(29-(2-(4-chloro-3-(4-cyano-6-(trifluoromethyl)pyridin-3-yl)-N-methylbenzamido)phenoxy)-2-oxo-6,9,12,15,18,21,24,27-octaoxa-3-azanonacosyl)-1,4,7,10-tetraazacyclododecane-1,4,7-triyl)triacetate], the Ki was below 10 nM.

On to `COc1ccccc1N(C)C(=O)c1cc(-c2cnc(C(F)(F)F)cc2C#N)c(Cl)cc1OCCOCCOCCOCCOCCOCCOCCOCCOCCNC(=O)CN1CCN(CC(=O)O)CCN(CC(=O)O)CCN(CC(=O)O)CC1` [Compound 5M-In, indium(III) 2,2′,2″-(10-(29-(5-chloro-4-(4-cyano-6-(trifluoromethyl)pyridin-3-yl)-2-((2-methoxyphenyl) (methyl)carbamoyl)phenoxy)-2-oxo-6,9,12,15,18,21,24,27-octaoxa-3-azanonacosyl)-1,4,7,10-tetraazacyclododecane-1,4,7-triyl)triacetate], for which the Ki is below 10 nM.

Turning to `COc1ccccc1N(C)C(=O)c1cc(-c2cnc(C(F)(F)F)cc2C#N)c(Cl)cc1OCCCC(=O)NCCOCCOCCOCCOCCOCCOCCOCCOCCNC(=O)CN1CCN(CC(=O)O)CCN(CC(=O)O)CCN(CC(=O)O)CC1` [Compound 6M-In, indium(III) 2,2′,2″-(10-(34-(5-chloro-4-(4-cyano-6-(trifluoromethyl)pyridin-3-yl)-2-((2-methoxyphenyl)(methyl)carbamoyl)phenoxy)-2,31-dioxo-6,9,12,15,18,21,24,27-octaoxa-3,30-diazatetratriacontyl)-1,4,7,10-tetraazacyclododecane-1,4,7-triyl)triacetate], the Ki was below 10 nM.

In the case of `Cc1cccc(OCCC(=O)NCCOCCOCCOCCOCCOCCOCCOCCOCCNC(=O)CN2CCN(CC(=O)O)CCN(CC(=O)O)CCN(CC(=O)O)CC2)c1N(C)C(=O)c1ccc(Cl)c(-c2cnc(C(F)(F)F)cc2C#N)c1` [Compound 8, 2,2′,2″-(10-(33-(2-(4-chloro-3-(4-cyano-6-(trifluoromethyl)pyridin-3-yl)-N-methylbenzamido)-3-methylphenoxy)-2,31-dioxo-6,9,12,15,18,21,24,27-octaoxa-3,30-diazatritriacontyl)-1,4,7,10-tetraazacyclododecane-1,4,7-triyl)triacetic acid], the Ki is below 10 nM.

Still in this experiment, the particulars now being: incubation time 2 h; FlpIn T-Rex 293 cells expressing human GnRH receptor; read-out: hGnRHR Binding Ki 2 h.
With `COc1nc(OCCOCCOCCOCCOCCOCCOCCOCCOCCNC(=O)CN2CCN(CC(=O)O)CCN(CC(=O)O)CCN(CC(=O)O)CC2)nc(OC)c1NC(=O)c1ccc(Oc2cc3c(cc2C)CCC3(C)C)o1` [Compound 4, 2,2′,2″-(10-(29-((4,6-dimethoxy-5-(5-((3,3,6-trimethyl-2,3-dihydro-1H-inden-5-yl)oxy)furan-2-carboxamido)pyrimidin-2-yl)oxy)-2-oxo-6,9,12,15,18,21,24,27-octaoxa-3-azanonacosyl)-1,4,7,10-tetraazacyclododecane-1,4,7-triyl)triacetic acid], the Ki was below 10 nM.

`CC1(C)CCN(S(=O)(=O)c2cc(-c3cnc(C(F)(F)F)cc3C#N)c(Cl)cc2OCCOCCOCCOCCOCCOCCOCCOCCOCCNC(=O)CN2CCN(CC(=O)O)CCN(CC(=O)O)CCN(CC(=O)O)CC2)c2ccccc21` [Compound 7, 2,2′,2″-(10-(29-(5-chloro-4-(4-cyano-6-(trifluoromethyl)pyridin-3-yl)-2-((4,4-dimethyl-3,4-dihydroquinolin-1(2H)-yl)sulfonyl)phenoxy)-2-oxo-6,9,12,15,18,21,24,27-octaoxa-3-azanonacosyl)-1,4,7,10-tetraazacyclododecane-1,4,7-triyl)triacetic acid]: the Ki was below 10 nM.

For `COc1nc(SCCC(=O)NCCC[C@@H](NC(=O)CN2CCN(CC(=O)O)CCN(CC(=O)O)CCN(CC(=O)O)CC2)C(=O)O)nc(OC)c1NC(=O)c1ccc(Oc2cc3c(cc2C)CCC3(C)C)o1` [Compound 16, (R)-2,2′,2″-(10-(2-((1-carboxy-4-(3-((4,6-dimethoxy-5-(5-((3,3,6-trimethyl-2,3-dihydro-1H-inden-5-yl)oxy)furan-2-carboxamido)pyrimidin-2-yl)thio)propanamido)butyl)amino)-2-oxoethyl)-1,4,7,10-tetraazacyclododecane-1,4,7-triyl)triacetic acid], the Ki was below 10 nM.

Regarding `COc1nc(SCCC(=O)NCCN(C)CCNC(=O)CN2CCN(CC(=O)O)CCN(CC(=O)O)CCN(CC(=O)O)CC2)nc(OC)c1NC(=O)c1ccc(Oc2cc3c(cc2C)CCC3(C)C)o1` [Compound 17, 2,2′,2″-(10-(2-((2-((2-(3-((4,6-dimethoxy-5-(5-((3,3,6-trimethyl-2,3-dihydro-1H-inden-5-yl)oxy)furan-2-carboxamido)pyrimidin-2-yl)thio)propanamido)ethyl)(methyl)amino)ethyl)amino)-2-oxoethyl)-1,4,7,10-tetraazacyclododecane-1,4,7-triyl)triacetic acid], the Ki was below 10 nM.

With `COc1nc(SCCC(=O)NCCN(C)CCNC(=O)[C@H](N)CCCNC(=O)CN2CCN(CC(=O)O)CCN(CC(=O)O)CCN(CC(=O)O)CC2)nc(OC)c1NC(=O)c1ccc(Oc2cc3c(cc2C)CCC3(C)C)o1` [Compound 19, (R)-2,2′,2″-(10-(7-amino-18-((4,6-dimethoxy-5-(5-((3,3,6-trimethyl-2,3-dihydro-1H-inden-5-yl)oxy)furan-2-carboxamido)pyrimidin-2-yl)thio)-12-methyl-2,8,16-trioxo-3,9,12,15-tetraazaoctadecyl)-1,4,7,10-tetraazacyclododecane-1,4,7-triyl)triacetic acid], the Ki is below 10 nM.
